Columns and labels:
[1] = tested on: Staphylococcus aureus Smith; test: Therapeutic activity of antibiotic PS-5 sodium salt in infected mice; type: in vivo; details: mice infected with pathogenic Gram-positive bacteria
From the text: The therapeutic activity of the antibiotic PS-5 sodium salt was studied by treating mice intraperitoneally infected with 5×10^5 cells/mouse of Staphylococcus aureus Smith. Soon after the infection, an aqueous solution of the antibiotic PS-5 sodium salt was subcutaneously injected.

Proteus sp. P-22 = test: Potentiation disc assay with penicillin G (Table 9); type: cell-based; details: for Inhibition zone With pen. G: 50 μg/ml penicillin G in agar
Description: (§1) (A) Ten milliliters of molten nutrient agar containing 50 μg/ml of penicillin G or cephaloridine, 0.8% of Kyokuto Nutrient Broth Powder and 1.0% of Difco Bacto-Agar (pH 7.0) were seeded with the beta-lactam-resistant, beta-lactamase-producing microorganisms indicated in Tables 9 and 10, and poured in a 9-cm Petri dish to provide the bio-assay agar plate. On this assay plate, 8-mm pulp discs containing 25 μl each of antibiotic PS-5 solutions at the indicated concentrations were placed and incubated at 35° C. for 18 hours before reading the inhibition zones. The control assay plate was similarly prepared without penicillin G nor cephaloridine. As reference antibiotics, penicillin G, ampicillin, oxacillin and cefazolin were disc-assayed under the same conditions.

Enterobacter sp. E-8 = test: as above; type: cell-based; details: for Inhibition zone With pen. G: 50 μg/ml penicillin G in agar
Description: as §1

Citrobacter freundii E-9 [2] = test: as above; type: cell-based; details: for Inhibition zone With pen. G: 50 μg/ml penicillin G in agar
Description: as §1

Proteus vulgaris P-5 [3] = test: as above; type: cell-based; details: for Inhibition zone With pen. G: 50 μg/ml penicillin G in agar
Description: as §1

Serratia marcescens S-18 = test: as above; type: cell-based; details: for Inhibition zone With pen. G: 50 μg/ml penicillin G in agar
Description: as §1

Citrobacter freundii E-9 [4] = test: Potentiation disc assay with cephaloridine (Table 10); type: cell-based; details: for Inhibition zone With CER: 50 μg/ml cephaloridine in agar
Description: as §1

Serratia marcescens = test: as above; type: cell-based; details: for Inhibition zone With CER: 50 μg/ml cephaloridine in agar
Description: as §1

Proteus vulgaris P-5 [5] = test: as above; type: cell-based; details: Proteus vulgaris P-5; for Inhibition zone With CER: 50 μg/ml cephaloridine in agar
Description: as §1

Enterobacter sp. E-18 = test: as above; type: cell-based; details: for Inhibition zone With CER: 50 μg/ml cephaloridine in agar
Description: as §1

[6] = Solubility of antibiotic PS-5; type: physicochemical

CCC1C(=O)N2C(C(=O)O)=C(SCCNC(C)=O)CC12 (single isomer, unassigned) [Antibiotic PS-5]
Therapeutic effect in infected mice [1]: marked therapeutic effect | zone of inhibition at 79.5 µg/mL (Proteus sp. P-22; 18 h, PS-5 79.5 μg/ml, read-out: Inhibition zone Without pen. G): 0 mm | zone of inhibition at 100 µg/mL (Proteus sp. P-22; 18 h, PS-5 100 μg/ml, read-out: Inhibition zone Without pen. G): 0 mm | zone of inhibition at 159 µg/mL (Proteus sp. P-22; 18 h, PS-5 159 μg/ml, read-out: Inhibition zone Without pen. G): 11.7 mm | zone of inhibition at 318 µg/mL (Proteus sp. P-22; 18 h, PS-5 318 μg/ml, read-out: Inhibition zone Without pen. G): 13.6 mm | Inhibition zone With pen. G (Proteus sp. P-22; PS-5 79.5 μg/ml): 12.8 mm | Inhibition zone With pen. G (Proteus sp. P-22; PS-5 100 μg/ml): 13.8 mm | Inhibition zone With pen. G (Proteus sp. P-22; PS-5 159 μg/ml): 18.2 mm | Inhibition zone With pen. G (Proteus sp. P-22; PS-5 318 μg/ml): 21.4 mm | Inhibition zone With pen. G (Enterobacter sp. E-8; PS-5 79.5 μg/ml): 11.0 mm | Inhibition zone With pen. G (Enterobacter sp. E-8; PS-5 100 μg/ml): 13.8 mm | Inhibition zone With pen. G (Enterobacter sp. E-8; PS-5 159 μg/ml): 17.5 mm | Inhibition zone With pen. G (Enterobacter sp. E-8; PS-5 318 μg/ml): 20.0 mm | zone of inhibition at 79.5 µg/mL (Enterobacter sp. E-8; SP.E8, 18 h, PS-5 79.5 μg/ml, read-out: Inhibition zone Without pen. G): 11 mm | zone of inhibition at 100 µg/mL (Enterobacter sp. E-8; SP.E8, 18 h, PS-5 100 μg/ml, read-out: Inhibition zone Without pen. G): 13.8 mm | zone of inhibition at 159 µg/mL (Enterobacter sp. E-8; SP.E8, 18 h, PS-5 159 μg/ml, read-out: Inhibition zone Without pen. G): 17.2 mm | zone of inhibition at 318 µg/mL (Enterobacter sp. E-8; SP.E8, 18 h, PS-5 318 μg/ml, read-out: Inhibition zone Without pen. G): 20.1 mm | zone of inhibition at 79.5 µg/mL (Citrobacter freundii E-9 [2]; E9, 18 h, PS-5 79.5 μg/ml, read-out: Inhibition zone Without pen. G): 10.4 mm | zone of inhibition at 100 µg/mL (Citrobacter freundii E-9 [2]; E9, 18 h, PS-5 100 μg/ml, read-out: Inhibition zone Without pen. G): 13.2 mm | zone of inhibition at 159 µg/mL (Citrobacter freundii E-9 [2]; E9, 18 h, PS-5 159 μg/ml, read-out: Inhibition zone Without pen. G): 17.2 mm | zone of inhibition at 318 µg/mL (Citrobacter freundii E-9 [2]; E9, 18 h, PS-5 318 μg/ml, read-out: Inhibition zone Without pen. G): 20.8 mm | Inhibition zone With pen. G (Citrobacter freundii E-9 [2]; PS-5 79.5 μg/ml): 13.1 mm | Inhibition zone With pen. G (Citrobacter freundii E-9 [2]; PS-5 100 μg/ml): 15.2 mm | Inhibition zone With pen. G (Citrobacter freundii E-9 [2]; PS-5 159 μg/ml): 19.2 mm | Inhibition zone With pen. G (Citrobacter freundii E-9 [2]; PS-5 318 μg/ml): 23.0 mm | zone of inhibition at 79.5 µg/mL (Proteus vulgaris P-5 [3]; P5, 18 h, PS-5 79.5 μg/ml, read-out: Inhibition zone Without pen. G): 0 mm | zone of inhibition at 100 µg/mL (Proteus vulgaris P-5 [3]; P5, 18 h, PS-5 100 μg/ml, read-out: Inhibition zone Without pen. G): 10.3 mm | zone of inhibition at 159 µg/mL (Proteus vulgaris P-5 [3]; P5, 18 h, PS-5 159 μg/ml, read-out: Inhibition zone Without pen. G): 14 mm | zone of inhibition at 318 µg/mL (Proteus vulgaris P-5 [3]; P5, 18 h, PS-5 318 μg/ml, read-out: Inhibition zone Without pen. G): 16 mm | Inhibition zone With pen. G (Proteus vulgaris P-5 [3]; PS-5 79.5 μg/ml): 18.3 mm | Inhibition zone With pen. G (Proteus vulgaris P-5 [3]; PS-5 100 μg/ml): 22.2 mm | Inhibition zone With pen. G (Proteus vulgaris P-5 [3]; PS-5 159 μg/ml): 24.5 mm | Inhibition zone With pen. G (Proteus vulgaris P-5 [3]; PS-5 318 μg/ml): 26.6 mm | Inhibition zone With pen. G (Serratia marcescens S-18; PS-5 79.5 μg/ml): 13.8 mm | Inhibition zone With pen. G (Serratia marcescens S-18; PS-5 100 μg/ml): 16.1 mm | Inhibition zone With pen. G (Serratia marcescens S-18; PS-5 159 μg/ml): 22.0 mm | Inhibition zone With pen. G (Serratia marcescens S-18; PS-5 318 μg/ml): 22.1 mm | zone of inhibition at 79.5 µg/mL (Serratia marcescens S-18; S18, 18 h, PS-5 79.5 μg/ml, read-out: Inhibition zone Without pen. G): 0 mm | zone of inhibition at 100 µg/mL (Serratia marcescens S-18; S18, 18 h, PS-5 100 μg/ml, read-out: Inhibition zone Without pen. G): 13 mm | zone of inhibition at 159 µg/mL (Serratia marcescens S-18; S18, 18 h, PS-5 159 μg/ml, read-out: Inhibition zone Without pen. G): 17.8 mm | zone of inhibition at 318 µg/mL (Serratia marcescens S-18; S18, 18 h, PS-5 318 μg/ml, read-out: Inhibition zone Without pen. G): 21.3 mm | zone of inhibition at 79.5 µg/mL (Citrobacter freundii E-9 [4]; E9, 18 h, PS-5 79.5 μg/ml, read-out: Inhibition zone Without CER): 16 mm | zone of inhibition at 100 µg/mL (Citrobacter freundii E-9 [4]; E9, 18 h, PS-5 100 μg/ml, read-out: Inhibition zone Without CER): 17.4 mm | zone of inhibition at 159 µg/mL (Citrobacter freundii E-9 [4]; E9, 18 h, PS-5 159 μg/ml, read-out: Inhibition zone Without CER): 17.4 mm | zone of inhibition at 318 µg/mL (Citrobacter freundii E-9 [4]; E9, 18 h, PS-5 318 μg/ml, read-out: Inhibition zone Without CER): 22.5 mm | Inhibition zone With CER (Citrobacter freundii E-9 [4]; PS-5 79.5 μg/ml): 19.4 mm | Inhibition zone With CER (Citrobacter freundii E-9 [4]; PS-5 100 μg/ml): 21.6 mm | Inhibition zone With CER (Citrobacter freundii E-9 [4]; PS-5 159 μg/ml): 22.3 mm | Inhibition zone With CER (Citrobacter freundii E-9 [4]; PS-5 318 μg/ml): 24.6 mm | zone of inhibition at 79.5 µg/mL (Serratia marcescens; 18 h, PS-5 79.5 μg/ml, read-out: Inhibition zone Without CER): 14.8 mm | zone of inhibition at 100 µg/mL (Serratia marcescens; 18 h, PS-5 100 μg/ml, read-out: Inhibition zone Without CER): 16.8 mm | zone of inhibition at 159 µg/mL (Serratia marcescens; 18 h, PS-5 159 μg/ml, read-out: Inhibition zone Without CER): 17 mm | zone of inhibition at 318 µg/mL (Serratia marcescens; 18 h, PS-5 318 μg/ml, read-out: Inhibition zone Without CER): 21 mm | Inhibition zone With CER (Serratia marcescens; PS-5 79.5 μg/ml): 22.3 mm | Inhibition zone With CER (Serratia marcescens; PS-5 100 μg/ml): 23.3 mm | Inhibition zone With CER (Serratia marcescens; PS-5 159 μg/ml): 24.8 mm | Inhibition zone With CER (Serratia marcescens; PS-5 318 μg/ml): 26.1 mm | zone of inhibition at 79.5 µg/mL (Proteus vulgaris P-5 [5]; P5, 18 h, PS-5 79.5 μg/ml, read-out: Inhibition zone Without CER): 12.5 mm | zone of inhibition at 100 µg/mL (Proteus vulgaris P-5 [5]; P5, 18 h, PS-5 100 μg/ml, read-out: Inhibition zone Without CER): 13.7 mm | zone of inhibition at 159 µg/mL (Proteus vulgaris P-5 [5]; P5, 18 h, PS-5 159 μg/ml, read-out: Inhibition zone Without CER): 15.2 mm | zone of inhibition at 318 µg/mL (Proteus vulgaris P-5 [5]; P5, 18 h, PS-5 318 μg/ml, read-out: Inhibition zone Without CER): 18.5 mm | Inhibition zone With CER (Proteus vulgaris P-5 [5]; PS-5 79.5 μg/ml): 21.8 mm | Inhibition zone With CER (Proteus vulgaris P-5 [5]; PS-5 100 μg/ml): 22.0 mm | Inhibition zone With CER (Proteus vulgaris P-5 [5]; PS-5 159 μg/ml): 24.0 mm | Inhibition zone With CER (Proteus vulgaris P-5 [5]; PS-5 318 μg/ml): 25.2 mm | Inhibition zone With CER (Enterobacter sp. E-18; PS-5 79.5 μg/ml): 17.6 mm | Inhibition zone With CER (Enterobacter sp. E-18; PS-5 100 μg/ml): 18.0 mm | Inhibition zone With CER (Enterobacter sp. E-18; PS-5 159 μg/ml): 19.4 mm | Inhibition zone With CER (Enterobacter sp. E-18; PS-5 318 μg/ml): 21.9 mm | zone of inhibition at 79.5 µg/mL (Enterobacter sp. E-18; SP.E18, 18 h, PS-5 79.5 μg/ml, read-out: Inhibition zone Without CER): 15.1 mm | zone of inhibition at 100 µg/mL (Enterobacter sp. E-18; SP.E18, 18 h, PS-5 100 μg/ml, read-out: Inhibition zone Without CER): 16.1 mm | zone of inhibition at 159 µg/mL (Enterobacter sp. E-18; SP.E18, 18 h, PS-5 159 μg/ml, read-out: Inhibition zone Without CER): 18.2 mm | zone of inhibition at 318 µg/mL (Enterobacter sp. E-18; SP.E18, 18 h, PS-5 318 μg/ml, read-out: Inhibition zone Without CER): 21 mm | Solubility in ethyl acetate and benzene ([6]; at pH above 4): substantially insoluble | Solubility in water ([6]; water at pH 6 to 9): soluble
